Earlier results, collected in patent US7569576B2, “Cyclic 1-(acyloxy)-alkyl prodrugs of GABA analogs, compositions and uses thereof” (XenoPort, Inc., priority 2002, dated 2009).

| Compound | toxicity (LD50, mouse) |
| --- | --- |
| NCC1(CC(=O)O)CCCCC1 [gabapentin] | more than 8000 mg/kg |
| O=C1CC2(CCCCC2)CN1 [lactam 9] | 300 mg/kg |
